Our source for the Ki and EC50 values is patent publication US9951064B2, “Azaindazole compounds as inhibitors of T790M containing EGFR mutants” (Genentech, Inc., priority 2013, dated 2018).

The target in one assay is T1, EGFR T790M L858R (Homo sapiens, UniProt P00533, L858R/T790M).
T1 construct: purchased Life Technologies PV4879
Kind of assay: EGFR T790M L858R biochemical assay (Caliper mobility shift). Conditions: 5 μM ATP; apparent Ki (Morrison fit) converted by Cheng-Prusoff, Km of ATP 1.3 μM. The essentials:
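Caliper mobility-shift read-out, electrophoretic separation of substrate from product, after a 30-minute kinase reaction at 22 °C. EDTA at 80 mM terminates each reaction.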

The target in a further assay is T2, EGFR del746-750 T790M (Homo sapiens, UniProt P00533, DEL746-750/T790M).
T2 construct: purchased Carna Biosciences 08-528
The assay can be described thus: EGFR del746-750 T790M biochemical assay (Caliper mobility shift). Conditions: 5 μM ATP; apparent Ki (Morrison fit) converted by Cheng-Prusoff, Km of ATP 2.1 μM; read-out: EGFR(T790M/d746-750) Ki. On the procedure: The exemplified compounds described herein were tested according to the assay below. The enzyme data reported in Tables 4-5 is generally a representative of multiple experiments.
Reactions proceed for 30 minutes at room temperature (22° C.) and are terminated with 80 mM 2,2′,2″,2″′-(ethane-1,2-diyldinitrilo)tetraacetic acid (EDTA). Product is detected using the Caliper mobility shift detection method where product and substrate are electrophoretically separated and measured.

Assay [1] relates to H1975 (EGFR T790M/L858R) cell proliferation. The assay can be described thus: H1975 proliferation assay (Cell Titer-Glo). It is filed as cell-based. The note with it: Homo sapiens, NCI-H1975, 72 h, NCI-H1975 cells, 72 hour incubation, read-out: H1975 antiproliferative EC50. On the procedure: H1975 Proliferation Assays
All cell culture reagents were purchased from Invitrogen/Gibco. Cells are cultured at 37° C. at 5% CO2 and split as recommended by ATCC.
On the technique in general: Cellular ATP, detected with luciferase, serves as a proxy for viable cell number.

Assay [2] has as its target T3, phosphor-EGFR in H1975(L585R/T790M) mutant EGFR expressing cells (Homo sapiens, UniProt P00533, L858R/T790M).
T3 construct: host or cells: NCI-H1975
The assay can be described thus: H1975 pEGFR MSD cellular assay. It is filed as cell-based. Conditions: NCI-H1975 cells, serum starved, 1 hour compound incubation, pEGFR Tyr1068 MSD; read-out: HI975 pEGFR EC50. Put shortly: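 Phospho-EGFR read by MSD electrochemiluminescence: capture with anti-pEGFR antibody (overnight, 4° C), detection with SULFO-TAG anti-total EGFR (1 hour, room temperature). Before lysis, H1975 cells starved of serum overnight got compound for 1 hour at 37° C, 0.5% DMSO final. EC50 via four-parameter logistic regression of percent inhibition.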

T3 sequence (P00533 25-1210 T790M/L858R): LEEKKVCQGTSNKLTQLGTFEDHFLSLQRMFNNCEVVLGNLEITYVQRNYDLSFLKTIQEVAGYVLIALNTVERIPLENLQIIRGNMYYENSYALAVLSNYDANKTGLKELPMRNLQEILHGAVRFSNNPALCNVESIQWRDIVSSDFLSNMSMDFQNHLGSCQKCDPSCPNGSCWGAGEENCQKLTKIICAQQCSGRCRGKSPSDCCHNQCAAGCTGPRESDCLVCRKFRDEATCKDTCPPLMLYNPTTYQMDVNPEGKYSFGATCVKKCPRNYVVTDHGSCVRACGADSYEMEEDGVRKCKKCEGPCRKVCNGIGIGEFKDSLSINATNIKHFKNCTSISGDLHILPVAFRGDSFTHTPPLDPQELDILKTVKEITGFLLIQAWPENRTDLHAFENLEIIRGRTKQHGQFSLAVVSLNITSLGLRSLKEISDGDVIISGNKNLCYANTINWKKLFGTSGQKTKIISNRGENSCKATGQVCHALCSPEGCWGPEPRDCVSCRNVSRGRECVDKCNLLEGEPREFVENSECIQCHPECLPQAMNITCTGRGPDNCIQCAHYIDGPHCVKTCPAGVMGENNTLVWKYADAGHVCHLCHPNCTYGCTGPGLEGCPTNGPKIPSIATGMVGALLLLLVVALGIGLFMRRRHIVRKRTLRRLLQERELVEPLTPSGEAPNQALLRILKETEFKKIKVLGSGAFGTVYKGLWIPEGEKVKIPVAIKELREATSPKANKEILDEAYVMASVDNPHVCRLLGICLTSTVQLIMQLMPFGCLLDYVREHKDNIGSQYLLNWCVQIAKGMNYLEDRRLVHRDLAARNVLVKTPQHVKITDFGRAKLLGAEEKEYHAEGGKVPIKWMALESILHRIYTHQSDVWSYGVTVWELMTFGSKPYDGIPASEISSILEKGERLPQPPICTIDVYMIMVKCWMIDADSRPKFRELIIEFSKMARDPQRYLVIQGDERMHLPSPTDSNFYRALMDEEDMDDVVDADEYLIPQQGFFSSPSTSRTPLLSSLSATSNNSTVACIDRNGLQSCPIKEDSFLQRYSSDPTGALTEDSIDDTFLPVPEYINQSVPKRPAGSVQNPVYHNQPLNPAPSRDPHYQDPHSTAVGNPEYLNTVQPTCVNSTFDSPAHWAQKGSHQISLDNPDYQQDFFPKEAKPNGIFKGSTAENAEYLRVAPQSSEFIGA
T1 sequence (P00533 25-1210 T790M/L858R): as above
T2 sequence (P00533 with tags, fused parts or gaps DEL746-750/T790M limits assumed): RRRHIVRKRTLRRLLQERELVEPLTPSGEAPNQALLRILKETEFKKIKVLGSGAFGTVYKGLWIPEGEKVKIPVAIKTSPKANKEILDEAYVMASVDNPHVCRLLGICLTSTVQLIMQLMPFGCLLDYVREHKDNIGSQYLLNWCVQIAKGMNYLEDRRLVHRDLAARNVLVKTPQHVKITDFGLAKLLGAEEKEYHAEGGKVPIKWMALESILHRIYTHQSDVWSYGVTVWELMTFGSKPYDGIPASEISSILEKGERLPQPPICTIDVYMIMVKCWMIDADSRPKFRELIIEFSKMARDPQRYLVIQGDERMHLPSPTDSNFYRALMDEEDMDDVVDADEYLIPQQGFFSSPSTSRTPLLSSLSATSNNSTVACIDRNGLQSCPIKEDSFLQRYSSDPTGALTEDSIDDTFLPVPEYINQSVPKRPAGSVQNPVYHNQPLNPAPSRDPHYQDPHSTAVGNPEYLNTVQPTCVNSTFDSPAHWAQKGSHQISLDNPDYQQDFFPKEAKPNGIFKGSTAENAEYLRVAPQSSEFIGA

Consider `CC1CCC(C)N1c1nn(C(C)C)c2cc(Nc3ccnc(-c4cnn(S(=O)(=O)C5CC5)c4)n3)ncc12` (stereo not drawn) [Example 91, N-(2-(1-(Cyclopropylsulfonyl)-1H-pyrazol-4-yl)pyrimidin-4-yl)-3-(2,5-dimethylpyrrolidin-1-yl)-1-isopropyl-1H-pyrazolo[4,3-c]pyridin-6-amine], for which the Ki at EGFR T790M L858R was found to be 20.2 nM; at EGFR del746-750 T790M it was 20.4 nM.

For the compound `CCC(C)n1nc(N2CC[C@@H](O)C2)c2cnc(Nc3ccnc(N4CCC5(CC4)CNC(=O)CO5)n3)cc21` (single isomer, unassigned) [Example 207, 9-(4-((1-((S*)-sec-Butyl)-3-((R)-3-hydroxypyrrolidin-1-yl)-1H-pyrazolo[4,3-c]pyridin-6-yl)amino)pyrimidin-2-yl)-1-oxa-4,9-diazaspiro[5.5]undecan-3-one], the Ki stood at 469 nM on EGFR T790M L858R and 1060 nM on EGFR del746-750 T790M.

In general, EC50 refers to the concentration needed to bring the measured effect to its halfway point. Take `COCC1CN(c2nn(C(C)C)c3cc(Nc4ccnc(-c5cnn(S(=O)(=O)C6CC6)c5)n4)ncc23)C1` [Example 152, N-(2-(1-(Cyclopropylsulfonyl)-1H-pyrazol-4-yl)pyrimidin-4-yl)-1-isopropyl-3-(3-(methoxymethyl)azetidin-1-yl)-1H-pyrazolo[4,3-c]pyridin-6-amine]: the concentration for a half-maximal effect (EC50) in assay [1] is 211 nM. For the same compound, the Ki on EGFR del746-750 T790M was 0.8 nM.

Consider `CC(C)n1nc(N2CC[C@H](CO)C2)c2cnc(Nc3ccnc(-c4cnn(S(=O)(=O)C5CC5)c4)n3)cc21` [Example 58, (S)-(1-(6-(2-(1-(cyclopropylsulfonyl)-1H-pyrazol-4-yl)pyrimidin-4-ylamino)-1-isopropyl-1H-pyrazolo[4,3-c]pyridin-3-yl)pyrrolidin-3-yl)methanol], for which the EC50 was 139 nM in assay [1] and 9.4 nM in assay [2]. Also, on EGFR T790M L858R, the Ki is 1.2 nM.

For the compound `CC(C)n1nc(OC2CCOC2)c2cnc(Nc3ccnc(-c4cnn(S(=O)(=O)C5CC5)c4)n3)cc21` (stereo not drawn) [Example 29, N-(2-(1-(Cyclopropylsulfonyl)-1H-pyrazol-4-yl)pyrimidin-4-yl)-1-isopropyl-3-(tetrahydrofuran-3-yloxy)-1H-pyrazolo[4,3-c]pyridin-6-amine], the concentration giving a half-maximal response (EC50) in assay [1] was found to be 798 nM; in assay [2] it was 154 nM. For the same compound, the Ki at EGFR T790M L858R is 1.9 nM.

For `CC(C)n1nc(N2CCN=C2O)c2cnc(Nc3ccnc(-c4cnn(S(=O)(=O)C5CC5)c4)n3)cc21` [Example 43, 1-(6-(2-(1-(cyclopropylsulfonyl)-1H-pyrazol-4-yl)pyrimidin-4-ylamino)-1-isopropyl-1H-pyrazolo[4,3-c]pyridin-3-yl)-4,5-dihydro-1H-imidazol-2-ol], the EC50 in assay [1] turned out to be 237 nM; in assay [2], 37.5 nM. The Ki on EGFR T790M L858R is 0.9 nM.

Turning to `CCC(C)n1nc(N2CC(C(C)(C)O)C2)c2cnc(Nc3ccnc(N4CCC(O)C(C)(C)C4)n3)cc21` (mixture of isomers) [Example 12, 1-(4-((1-(sec-Butyl)-3-(3-(2-hydroxypropan-2-yl)azetidin-1-yl)-1H-pyrazolo[4,3-c]pyridin-6-yl)amino)pyrimidin-2-yl)-3,3-dimethylpiperidin-4-ol], the 50% effective concentration (EC50) worked out at 288 nM in assay [1] and 30.2 nM in assay [2]. Besides, the Ki at EGFR T790M L858R was 2.2 nM.

For `CC(C)n1nc(N2CC3(COC3)C2)c2cnc(Nc3ccnc(-c4cnn(S(=O)(=O)C5CC5)c4)n3)cc21` [Example 5, N-(2-(1-(Cyclopropylsulfonyl)-1H-pyrazol-4-yl)pyrimidin-4-yl)-1-isopropyl-3-(2-oxa-6-azaspiro[3.3]heptan-6-yl)-1H-pyrazolo[4,3-c]pyridin-6-amine], the figures for the EC50 in assay [1] and in assay [2] were 421 nM and 29.6 nM, respectively. In addition, the Ki at EGFR T790M L858R is 1 nM.

As for `CC(C)n1nc(N2CC(C(=O)N(C)C)C2)c2cnc(Nc3ccnc(-c4cnn(S(=O)(=O)C5CC5)c4)n3)cc21` [Example 57, 1-(6-(2-(1-(cyclopropylsulfonyl)-1H-pyrazol-4-yl)pyrimidin-4-ylamino)-1-isopropyl-1H-pyrazolo[4,3-c]pyridin-3-yl)-N,N-dimethylazetidine-3-carboxamide], the 50% effective concentration (EC50) worked out at 159 nM in assay [1] and 18.1 nM in assay [2]. In addition, on EGFR T790M L858R, the Ki was < 0.6 nM.
